Like-named read-outs stand apart in the source and are kept apart here.
What was measured:
[1] = system: NCI-H358 (K-Ras G12C); assay: CellTiter-Glo cell viability assay, 5-day treatment; assay type: cell-based; conditions: Homo sapiens, NCI-H358, 120 h
Outline: (§1)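 Seeded cells received test compound by direct dispensing. On day 5 the plates sat at room temperature approximately 30 minutes, then luminescence was measured. Data were normalized to DMSO and curve-fitted with four parameters.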

[2] = system: Capan-1 (K-Ras G12V); assay: as above; assay type: cell-based; conditions: Homo sapiens, CAPAN-1, 120 h
Outline: as §1

[3] = molecular target: KRAS G12S (Homo sapiens, UniProt P01116+P62937, G12S); assay: Disruption of BRAF RBD interaction with Ras (FRET / MOA assay, with Cyclophilin A); assay type: biochemical
KRAS G12S, sequence (P01116 1-169 isoform P01116-2 G12S limits assumed): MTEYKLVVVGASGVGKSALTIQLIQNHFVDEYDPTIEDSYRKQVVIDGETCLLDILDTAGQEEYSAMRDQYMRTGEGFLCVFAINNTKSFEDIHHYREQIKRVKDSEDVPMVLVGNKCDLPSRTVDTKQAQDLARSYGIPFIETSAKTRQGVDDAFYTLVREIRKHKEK
KRAS G12S, sequence (P62937 whole entry): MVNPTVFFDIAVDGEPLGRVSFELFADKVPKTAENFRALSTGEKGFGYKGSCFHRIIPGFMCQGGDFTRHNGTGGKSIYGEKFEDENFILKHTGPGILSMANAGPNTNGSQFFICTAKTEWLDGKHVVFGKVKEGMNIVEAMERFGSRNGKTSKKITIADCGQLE
Outline: (§2)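 Here, compound titrations (ten points, factor 3, from 30 μM final) act on nucleotide-bound K-Ras and Cyclophilin A, and ternary complex formation disrupts the RAF RBD interaction.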

[4] = molecular target: KRAS G13C (Homo sapiens, UniProt P01116+P62937, G13C); assay: as above; assay type: biochemical
KRAS G13C, sequence (P01116 1-169 isoform P01116-2 G13C): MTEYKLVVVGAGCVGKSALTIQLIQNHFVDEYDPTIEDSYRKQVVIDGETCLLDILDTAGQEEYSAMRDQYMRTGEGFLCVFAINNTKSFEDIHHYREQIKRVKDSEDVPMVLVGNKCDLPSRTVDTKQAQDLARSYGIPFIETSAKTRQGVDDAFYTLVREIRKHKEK
KRAS G13C, sequence (P62937 whole entry): as the sequence (P62937 whole entry) above
Outline: as §2

[5] = molecular target: NRAS G12C (Homo sapiens, UniProt P01111+P62937, G12C); assay: as above; assay type: biochemical
NRAS G12C, sequence (P01111 whole entry G12C): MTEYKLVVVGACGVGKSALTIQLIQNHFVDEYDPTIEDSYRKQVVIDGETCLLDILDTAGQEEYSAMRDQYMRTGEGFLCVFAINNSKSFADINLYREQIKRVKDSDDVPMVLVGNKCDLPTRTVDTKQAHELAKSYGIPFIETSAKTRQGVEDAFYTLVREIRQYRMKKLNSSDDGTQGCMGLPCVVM
NRAS G12C, sequence (P62937 whole entry): as the sequence (P62937 whole entry) above

[6] = molecular target: KRAS G13D (Homo sapiens, UniProt P01116+P62937, G13D); assay: as above; assay type: biochemical
KRAS G13D, sequence (P01116 1-169 isoform P01116-2 G13D limits assumed): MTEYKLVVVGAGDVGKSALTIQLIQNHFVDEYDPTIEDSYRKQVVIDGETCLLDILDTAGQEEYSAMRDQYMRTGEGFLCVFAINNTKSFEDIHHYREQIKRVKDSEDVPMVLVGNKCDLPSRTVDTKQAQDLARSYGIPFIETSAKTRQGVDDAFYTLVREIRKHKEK
KRAS G13D, sequence (P62937 whole entry): as the sequence (P62937 whole entry) above
Outline: as §2

[7] = molecular target: KRAS G12D (Homo sapiens, UniProt P01116+P62937, G12D); assay: as above; assay type: biochemical
KRAS G12D, sequence (P01116 1-169 isoform P01116-2 G12D limits assumed): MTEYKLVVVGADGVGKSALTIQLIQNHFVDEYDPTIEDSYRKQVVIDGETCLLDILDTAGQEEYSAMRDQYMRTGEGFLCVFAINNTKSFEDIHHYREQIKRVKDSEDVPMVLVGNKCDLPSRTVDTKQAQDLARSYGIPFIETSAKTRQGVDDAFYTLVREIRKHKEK
KRAS G12D, sequence (P62937 whole entry): as the sequence (P62937 whole entry) above
Outline: as §2

[8] = molecular target: KRAS WT (Homo sapiens, UniProt P01116+P62937); assay: as above; assay type: biochemical
KRAS WT, sequence (P01116 1-169 isoform P01116-2 limits assumed): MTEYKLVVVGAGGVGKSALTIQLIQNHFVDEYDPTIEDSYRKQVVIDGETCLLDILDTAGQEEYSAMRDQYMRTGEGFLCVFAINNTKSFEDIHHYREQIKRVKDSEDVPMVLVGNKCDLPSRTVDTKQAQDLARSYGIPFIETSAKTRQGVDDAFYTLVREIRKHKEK
KRAS WT, sequence (P62937 whole entry): as the sequence (P62937 whole entry) above
Outline: as §2

[9] = molecular target: KRAS G12V (Homo sapiens, UniProt P01116+P62937, G12V); assay: as above; assay type: biochemical
KRAS G12V, sequence (P01116 1-169 isoform P01116-2 G12V limits assumed): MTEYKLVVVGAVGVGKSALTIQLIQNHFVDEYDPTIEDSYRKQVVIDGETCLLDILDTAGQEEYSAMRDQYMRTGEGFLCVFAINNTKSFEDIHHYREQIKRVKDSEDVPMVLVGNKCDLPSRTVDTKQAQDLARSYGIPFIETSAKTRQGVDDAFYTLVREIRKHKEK
KRAS G12V, sequence (P62937 whole entry): as the sequence (P62937 whole entry) above
Outline: as §2

[10] = molecular target: KRAS G12C (Homo sapiens, UniProt P01116+P62937, G12C); assay: as above; assay type: biochemical
KRAS G12C, sequence (P01116 1-169 isoform P01116-2 G12C): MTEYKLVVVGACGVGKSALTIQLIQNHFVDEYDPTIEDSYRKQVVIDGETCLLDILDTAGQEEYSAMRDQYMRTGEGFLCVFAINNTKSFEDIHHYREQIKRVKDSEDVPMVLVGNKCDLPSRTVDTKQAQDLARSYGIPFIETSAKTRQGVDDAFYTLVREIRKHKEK
KRAS G12C, sequence (P62937 whole entry): as the sequence (P62937 whole entry) above
Outline: as §2

[11] = molecular target: NRAS Q61R (Homo sapiens, UniProt P01111+P62937, Q61R); assay: as above; assay type: biochemical; conditions: NRAS Q61R; read-out: NRAS Q61R FRET data IC50
NRAS Q61R, sequence (P01111 whole entry Q61R): as the sequence (P01111 whole entry G12C) above, with C12G, Q61R counted along it
NRAS Q61R, sequence (P62937 whole entry): as the sequence (P62937 whole entry) above
Outline: (§3)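 IC50 reflects compound-driven Ras:Cyclophilin A ternary complex displacing BRAF RBD, read as lowered TR-FRET ratio relative to DMSO after Eu anti-His (10 nM) and APC anti-GST (50 nM) detection for 1.5 h. Prior incubation 3 h, 25° C, with 12.5 nM GMPPNP-loaded Ras, 50 nM BRAF RBD, 25 μM Cyclophilin A; top compound 30 μM.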

[12] = molecular target: NRAS Q61K (Homo sapiens, UniProt P01111+P62937, Q61K); assay: as above; assay type: biochemical; conditions: NRAS Q61K; read-out: NRAS Q61K FRET data IC50
NRAS Q61K, sequence (P01111 whole entry Q61K): as the sequence (P01111 whole entry G12C) above, with C12G, Q61K counted along it
NRAS Q61K, sequence (P62937 whole entry): as the sequence (P62937 whole entry) above
Outline: as §3

[13] = molecular target: NRAS WT (Homo sapiens, UniProt P01111+P62937); assay: as above; assay type: biochemical; conditions: NRAS WT; read-out: NRAS WT FRET data IC50
NRAS WT, sequence (P01111 whole entry): as the sequence (P01111 whole entry G12C) above, with C12G counted along it
NRAS WT, sequence (P62937 whole entry): as the sequence (P62937 whole entry) above
Outline: as §3

[14] = molecular target: KRAS Q61H (Homo sapiens, UniProt P01116+P62937, Q61H); assay: as above; assay type: biochemical; conditions: KRAS Q61H; read-out: KRAS Q61H FRET data IC50
KRAS Q61H, sequence (P01116 1-169 isoform P01116-2 Q61H limits assumed): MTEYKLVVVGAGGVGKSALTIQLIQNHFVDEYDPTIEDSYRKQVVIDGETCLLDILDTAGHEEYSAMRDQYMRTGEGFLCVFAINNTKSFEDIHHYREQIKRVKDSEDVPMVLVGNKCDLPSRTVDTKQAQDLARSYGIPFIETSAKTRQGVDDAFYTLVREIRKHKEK
KRAS Q61H, sequence (P62937 whole entry): as the sequence (P62937 whole entry) above
Outline: as §3

[15] = 5-day treatment, read-out: H358 Cell Viability assay data (K-Ras G12C, IC50)
[16] = 5-day treatment, read-out: Capan-1 Cell Viability assay data (K-Ras G12V, IC50)
[17] = read-out: KRAS G12S FRET data, IC50
[18] = read-out: KRAS G13C FRET data, IC50
[19] = NRAS G12C, read-out: NRAS G12C FRET data IC50
[20] = KRAS G13D, read-out: KRAS G13D FRET data IC50
[21] = read-out: KRAS G12D FRET data, IC50
[22] = KRAS WT, read-out: KRAS WT FRET data IC50
[23] = KRAS G12V, read-out: KRAS G12V FRET data IC50
[24] = read-out: KRAS G12C FRET data, IC50

| SMILES | IC50 [1, 15] [µM] | IC50 [3, 17] [µM] | IC50 [4, 18] [µM] | IC50 [5, 19] [µM] | IC50 [6, 20] [µM] | IC50 [7, 21] [µM] | IC50 [8, 22] [µM] | IC50 [9, 23] [µM] | IC50 [10, 24] [µM] | IC50 [11] [µM] | IC50 [12] [µM] | IC50 [13] [µM] | IC50 [14] [µM] | IC50 [2, 16] [µM] | further results |
| --- | --- | --- | --- | --- | --- | --- | --- | --- | --- | --- | --- | --- | --- | --- | --- |
| CCn1c(-c2cccnc2[C@H](C)OC)c2c3cc(ccc31)-c1cc(O)cc(c1)C[C@H](NC(=O)[C@H](C(C)C)N(C)C(=O)C1CCc3ccccc3N1)C(=O)N1CCC[C@H](N1)C(=O)OCC(C)(C)C2 (stereo partly shown) [Example A226] | 0.1 to 1 | 0.1 to 1 | 0.01 to 0.1 | 0.1 to 1 | 0.1 to 1 | 1 to 10 | 0.1 to 1 | 0.1 to 1 | 0.01 to 0.1 | 0.1 to 1 | 0.1 to 1 | 0.1 to 1 | 0.01 to 0.1 | 0.1 to 1 |  |
| CCn1c(-c2cccnc2[C@H](C)OC)c2c3cc(ccc31)-c1csc(n1)C[C@H](NC(=O)N1CCCC1)C(=O)N1CCC[C@H](N1)C(=O)OCC(C)(C)C2 [Example A267] | 0.1 to 1 |  |  |  |  |  |  |  |  | 0.1 to 1 | 0.1 to 1 | 0.1 to 1 | 0.1 to 1 | 0.1 to 1 | IC50 ([3]; KRAS G12S FRET data, IC50): 0.1 to 1 µM; IC50 ([4]; KRAS G13C FRET data, IC50): 0.1 to 1 µM; IC50 ([5]; NRAS G12C FRET data IC50, NRAS G12C): 0.01 to 0.1 µM; IC50 ([6]; KRAS G13D FRET data IC50, KRAS G13D): 0.1 to 1 µM; IC50 ([7]; KRAS G12D FRET data, IC50): 0.1 to 1 µM; IC50 ([8]; KRAS WT FRET data IC50, KRAS WT): 0.1 to 1 µM; IC50 ([9]; KRAS G12V FRET data IC50, KRAS G12V): 0.1 to 1 µM; IC50 ([10]; KRAS G12C FRET data, IC50): 0.1 to 1 µM |
| CCn1c(-c2cccnc2[C@H](C)OC)c2c3cc(ccc31)-c1csc(n1)C[C@H](NC(=O)[C@H](C(C)C)N(C)C(=O)N1CCC13CN(C)C3)C(=O)N1CCC[C@H](N1)C(=O)OCC(C)(C)C2 [Example A274] | 0.1 to 1 | 0.1 to 1 | 0.1 to 1 | 0.01 to 0.1 | 0.1 to 1 | 0.1 to 1 | 0.01 to 0.1 | 0.1 to 1 | 0.01 to 0.1 | 0.1 to 1 | 0.1 to 1 | 0.01 to 0.1 | 0.01 to 0.1 | 0.1 to 1 |  |
| CCn1c(-c2cccnc2[C@H](C)OC)c2c3cc(ccc31)-c1csc(n1)C[C@H](NC(=O)[C@H](C(C)C)N(C)C(=O)N1C[C@H](C)N(C)C[C@@H]1C)C(=O)N1CCC[C@H](N1)C(=O)OCC(C)(C)C2 [Example A283] | 0.1 to 1 | 1 to 10 | 1 to 10 | 0.1 to 1 | 1 to 10 | 1 to 10 | 0.1 to 1 | 1 to 10 | 0.1 to 1 | 0.1 to 1 | 0.1 to 1 | 0.1 to 1 | 0.1 to 1 | 0.1 to 1 |  |
| CCn1c(-c2cccnc2[C@H](C)OC)c2c3cc(ccc31)-c1csc(n1)C[C@H](NC(=O)[C@H](C(C)C)N(C)C(=O)N1CC3CC(C1)N3C)C(=O)N1CCC[C@H](N1)C(=O)OCC(C)(C)C2 [Example A284] |  | 0.1 to 1 | 0.1 to 1 | 0.1 to 1 | 0.1 to 1 | 1 to 10 | 0.1 to 1 | 1 to 10 | 0.1 to 1 | 1 to 10 | 0.1 to 1 | 0.1 to 1 | 0.1 to 1 |  | IC50 ([1]; read-out: H358 Cell Viability assay data (K-Ras G12C, IC50, uM), 5-day treatment): 0.1 to 1 µM; IC50 ([2]; read-out: Capan-1 Cell Viability assay data (K-Ras G12V, IC50, uM)): 0.1 to 1 µM |

Now from value to compound, other results behind:

| IC50 [1, 15] [µM] | IC50 [3, 17] [µM] | IC50 [4, 18] [µM] | IC50 [5, 19] [µM] | IC50 [6, 20] [µM] | IC50 [7, 21] [µM] | IC50 [8, 22] [µM] | IC50 [9, 23] [µM] | IC50 [10, 24] [µM] | IC50 [11] [µM] | IC50 [12] [µM] | IC50 [13] [µM] | IC50 [14] [µM] | SMILES | IC50 [2, 16] [µM] | further results |
| --- | --- | --- | --- | --- | --- | --- | --- | --- | --- | --- | --- | --- | --- | --- | --- |
| 0.01 to 0.1 | 0.01 to 0.1 | 0.01 to 0.1 | 0.01 to 0.1 | 0.01 to 0.1 | 0.1 to 1 | 0.01 to 0.1 | 0.01 to 0.1 | 0.01 to 0.1 | 0.1 to 1 | 0.1 to 1 | 0.01 to 0.1 | 0.01 to 0.1 | CCn1c(-c2cccnc2[C@H](C)OC)c2c3cc(ccc31)-c1cc(O)cc(c1)C[C@H](NC(=O)[C@H](C(C)C)N(C)C(=O)[C@H]1CCN(C(=O)OC3COC3)C1)C(=O)N1CCC[C@H](N1)C(=O)OCC(C)(C)C2 [Example A204] | 0.01 to 0.1 |  |
| 0.1 to 1 | 1 to 10 | 1 to 10 | 0.1 to 1 | 1 to 10 | 1 to 10 | 0.1 to 1 | 1 to 10 | 0.1 to 1 | 0.1 to 1 | 0.1 to 1 | 0.1 to 1 | 0.1 to 1 | CCn1c(-c2cccnc2[C@H](C)OC)c2c3cc(ccc31)-c1csc(n1)C[C@H](NC(=O)[C@H](C(C)C)N(C)C(=O)O[C@H]1CCOC1)C(=O)N1CCC[C@H](N1)C(=O)OCC(C)(C)C2 [Example A210] | 0.01 to 0.1 |  |
| 0.01 to 0.1 | 0.01 to 0.1 | 0.01 to 0.1 | 0.01 to 0.1 | 0.1 to 1 | 0.1 to 1 | 0.1 to 1 | 0.01 to 0.1 | 0.01 to 0.1 | 0.1 to 1 | 0.1 to 1 | 0.01 to 0.1 | 0.01 to 0.1 | CCn1c(-c2cccnc2[C@H](C)OC)c2c3cc(ccc31)-c1cc(O)cc(c1)C[C@H](NC(=O)[C@H](C(C)C)N(C)C(=O)C1Cc3cccnc3C1)C(=O)N1CCC[C@H](N1)C(=O)OCC(C)(C)C2 (stereo partly shown) [Example A250] | 0.01 to 0.1 |  |
| 0.01 to 0.1 | 0.01 to 0.1 | 0.1 to 1 | 0.01 to 0.1 | 0.1 to 1 | 0.1 to 1 | 0.1 to 1 | 0.1 to 1 | 0.01 to 0.1 | 0.1 to 1 | 0.1 to 1 | 0.01 to 0.1 | 0.01 to 0.1 | CCn1c(-c2cccnc2[C@H](C)OC)c2c3cc(ccc31)-c1csc(n1)C[C@H](NC(=O)[C@H](C(C)C)N(C)C(=O)N1CCC13CCN(C)CC3)C(=O)N1CCC[C@H](N1)C(=O)OCC(C)(C)C2 [Example A273] | 0.1 to 1 |  |
| 0.1 to 1 | 1 to 10 | 1 to 10 | 1 to 10 | 1 to 10 | > 10 | 1 to 10 | 1 to 10 | 1 to 10 | 1 to 10 | 0.1 to 1 | 1 to 10 | 0.1 to 1 | CCn1c(-c2cccnc2[C@H](C)OC)c2c3cc(ccc31)-c1csc(n1)C[C@H](NC(=O)[C@H](C(C)C)N(C)C(=O)N1CC[C@@H]1C(=O)NC)C(=O)N1CCC[C@H](N1)C(=O)OCC(C)(C)C2 [Example A281] | 0.1 to 1 |  |
| 0.1 to 1 | 1 to 10 | 1 to 10 | 0.1 to 1 | 1 to 10 | 1 to 10 | 1 to 10 | 1 to 10 | 0.1 to 1 | 1 to 10 | 1 to 10 | 1 to 10 | 0.1 to 1 | CCn1c(-c2cccnc2[C@H](C)OC)c2c3cc(ccc31)-c1csc(n1)C[C@H](NC(=O)[C@H](C(C)C)N(C)C(=O)N1CC[C@H]1C(=O)NC)C(=O)N1CC(C)C[C@H](N1)C(=O)OCC(C)(C)C2 (stereo partly shown) [Example A282] | 0.1 to 1 |  |
